According to patent US12064516B2, “Pharmaceutical formulations and uses thereof” (Aldeyra Therapeutics, Inc., priority 2020, dated 2024):

Tests used:
[1] = Phase 1 clinical trial, single ascending dose (SAD) pharmacokinetics; type: in vivo, human; conditions: healthy volunteers; for AUC(0-inf) / Cmax / half-life: human, in vivo, po
Text: Pharmacokinetic data are presented below.

[2] = Phase 1 clinical trial, safety and tolerability (adverse events, labs, vitals, QTcF); conditions: for subjects with TEAEs, %: subjects who received I-1
Description: This Phase 1 trial was a first-in-human, randomized, double-blind, placebo-controlled trial with a 3:1 randomization of I-1 and placebo. The trial was comprised of single ascending dose (SAD) and multiple ascending dose (MAD) protocols. MAD drug exposure was 10 days of twice-per-day (BID) administration.
A total of 54 healthy volunteers were randomized across two cohorts of varying doses: 41 subjects received I-1 and 13 subjects received placebo.
Thirty-one (31) subjects were randomized to varying doses: 23 subjects received I-1 and 8 subjects received placebo.

[3] = Pharmacokinetic comparison of ADX-102 (reproxalap) and compound I-1 in rats; type: in vivo, Sprague-Dawley rats
Description: Compound I-1 is the des-chloro analog of ADX-102. […] We have therefore investigated compound I-1 in 90-day toxicology studies in rat and dog as well as 10-day studies in man. We compared two data sets to contrast the pharmacokinetics of the two test articles. A 50 mg/kg oral dose PK study of compound I-1 was conducted in Sprague-Dawley rats using methylcellulose suspension. […] Both studies also incorporated intravenous administration in captisol for the calculation of clearance and steady state volume of distribution.
Both studies were dosed by oral gavage. Bioanalysis was conducted using LC-MS/MS. Further details of the experimental approach can be found in the individual reports.

[4] = Phase 1 clinical trial, multiple ascending dose (MAD) pharmacokinetics; type: in vivo, human; conditions: for Cmax / half-life / AUC(0-t): human, in vivo; for AUC(0-t): read-out: Mean AUC0-12
Text: PK data are presented below.

malondialdehyde (MDA) = assay: Plasma malondialdehyde (MDA) in Phase 1 subjects administered I-1 orally; type: in vivo, human; conditions: healthy volunteers
[5] = 100 mg, oral single dose 100 mg
[6] = 200 mg, oral single dose 200 mg
[7] = 400 mg, oral single dose 400 mg
[8] = 700 mg, oral single dose 700 mg
[9] = 1200 mg, oral single dose 1200 mg
[10] = SD Rat, oral gavage 50 mg/kg, 0.5% MC
[11] = Sprague-Dawley, in vivo, SD Rat, oral gavage 50 mg/kg, 0.5% MC

CC(C)(O)c1nc2ccccc2cc1N [I-1]
AUCinf ([1]; oral single dose 20 mg): 50.0 ng·h/mL | AUCinf ([1]; oral single dose 50 mg): 156 ng·h/mL | AUCinf ([1]; oral single dose 100 mg): 433 ng·h/mL | AUCinf ([1]; oral single dose 200 mg): 1140 ng·h/mL | AUCinf ([1]; oral single dose 400 mg): 2730 ng·h/mL | AUCinf ([1]; oral single dose 700 mg): 6710 ng·h/mL | AUCinf ([1]; oral single dose 1200 mg): 14500 ng·h/mL | AUC(0-inf) ([1]; 20 mg, oral single dose 20 mg): ~50 ng·h/mL | Cmax ([1]; 20 mg, oral single dose 20 mg): ~26.4 ng/mL | AUC(0-inf) ([1]; 50 mg, oral single dose 50 mg): ~156 ng·h/mL | Cmax ([1]; 50 mg, oral single dose 50 mg): ~56.7 ng/mL | AUC(0-inf) [1, 5]: ~433 ng·h/mL | Cmax [1, 5]: ~140 ng/mL | half-life [1, 5]: 3.52 h | AUC(0-inf) [1, 6]: ~1140 ng·h/mL | Cmax [1, 6]: ~459 ng/mL | half-life [1, 6]: 6.04 h | AUC(0-inf) [1, 7]: ~2730 ng·h/mL | Cmax [1, 7]: ~869 ng/mL | half-life [1, 7]: 6.15 h | AUC(0-inf) [1, 8]: ~6710 ng·h/mL | Cmax [1, 8]: ~2020 ng/mL | half-life [1, 8]: 7.33 h | AUC(0-inf) [1, 9]: ~14500 ng·h/mL | Cmax [1, 9]: ~4220 ng/mL | half-life [1, 9]: 7.69 h | intensity and relatedness of TEAEs ([2]; MAD): mild and deemed not to be related to the study drug | subjects with TEAEs, % ([2]; MAD): 17.4% | Pruritis, % of subjects ([2]; MAD, I-1 50 mg BID): (16.7%) | Pruritis, N subjects ([2]; MAD, I-1 50 mg BID): 1 | Rhinitis, N subjects ([2]; MAD, I-1 50 mg BID): 0 | URTI, N subjects ([2]; MAD, I-1 50 mg BID): 0 | Headache, N subjects ([2]; MAD, I-1 150 mg BID): 0 | Ligament sprain, N subjects ([2]; MAD, I-1 150 mg BID): 0 | Muscle spasms, N subjects ([2]; MAD, I-1 150 mg BID): 0 | Nasal congestion, % of subjects ([2]; MAD, I-1 150 mg BID): (16.7%) | Nasal congestion, N subjects ([2]; MAD, I-1 150 mg BID): 1 | Pruritis, N subjects ([2]; MAD, I-1 150 mg BID): 0 | Rhinitis, N subjects ([2]; MAD, I-1 150 mg BID): 0 | URTI, N subjects ([2]; MAD, I-1 150 mg BID): 0 | Headache, N subjects ([2]; MAD, I-1 350 mg BID): 0 | Ligament sprain, N subjects ([2]; MAD, I-1 350 mg BID): 0 | Muscle spasms, N subjects ([2]; MAD, I-1 350 mg BID): 0 | Nasal congestion, N subjects ([2]; MAD, I-1 350 mg BID): 0 | Pruritis, N subjects ([2]; MAD, I-1 350 mg BID): 0 | URTI, % of subjects ([2]; MAD, I-1 350 mg BID): (20.0%) | URTI, N subjects ([2]; MAD, I-1 350 mg BID): 1 | Headache, N subjects ([2]; MAD, I-1 600 mg BID): 0 | Ligament sprain, N subjects ([2]; MAD, I-1 600 mg BID): 0 | Muscle spasms, N subjects ([2]; MAD, I-1 600 mg BID): 0 | Nasal congestion, N subjects ([2]; MAD, I-1 600 mg BID): 0 | Pruritis, N subjects ([2]; MAD, I-1 600 mg BID): 0 | Rhinitis, % of subjects ([2]; MAD, I-1 600 mg BID): (16.7%) | Rhinitis, N subjects ([2]; MAD, I-1 600 mg BID): 1 | URTI, N subjects ([2]; MAD, I-1 600 mg BID): 0 | Headache, N subjects ([2]; MAD, I-1 Total): 0 | Ligament sprain, N subjects ([2]; MAD, I-1 Total): 0 | Muscle spasms, N subjects ([2]; MAD, I-1 Total): 0 | Nasal congestion, % of subjects ([2]; MAD, I-1 Total): (4.3%) | Nasal congestion, N subjects ([2]; MAD, I-1 Total): 1 | Pruritis, % of subjects ([2]; MAD, I-1 Total): (4.3%) | Pruritis, N subjects ([2]; MAD, I-1 Total): 1 | Rhinitis, % of subjects ([2]; MAD, I-1 Total): (4.3%) | Rhinitis, N subjects ([2]; MAD, I-1 Total): 1 | URTI, % of subjects ([2]; MAD, I-1 Total): (4.3%) | URTI, N subjects ([2]; MAD, I-1 Total): 1 | QTcF prolongation ([2]; Phase 1): did not lead to QTcF prolongation | changes in heart rate, blood pressure, respiratory rate, pulse oximetry, temperature ([2]; Phase 1): No clinically meaningful changes | changes in hepatic or renal analytes (ALT, AST, ALP, amylase, GGT, bilirubin, creatinine kinase, creatinine) ([2]; Phase 1): No clinically meaningful changes | changes in serum glucose ([2]; Phase 1): No changes | hematological changes ([2]; Phase 1): No clinically significant hematological changes | subjects with QTcF ≥500 msec or a change of ≥60 msec from baseline ([2]; Phase 1): no subjects | subjects with QTcF change of >30 msec from baseline ([2]; Phase 1, three in SAD, two in MAD): Five | interruptions or discontinuations of study drug administration ([2]; Phase 1 SAD and MAD): no interruptions or discontinuations | overall safety and tolerability ([2]; Phase 1 SAD and MAD): safe and tolerable | TEAE description ([2]; SAD, one subject in 100 mg dose cohort): syncope lasting less than a minute, moderate in intensity and deemed to be related to the study drug | TEAE description ([2]; SAD, one subject, single dose of 700 mg): sinus congestion, mild in intensity and deemed not to be related to I-1 | subjects with TEAEs, % ([2]; SAD): 3.7% | subjects with treatment emergent adverse events (TEAEs), % ([2]; all subjects receiving I-1 (SAD and MAD)): 9.4% | AUC 0-inf/Dose [3, 10]: 153 | AUC 0-t/Dose [3, 10]: 146 | Vd ([3]; Sprague-Dawley, in vivo, SD Rat, intravenous data using captisol formulation, read-out: Vss): 3.13 L/kg | AUC(0-inf) [3, 11]: 7670 ng·h/mL | AUC(0-t) [3, 11]: 7300 ng·h/mL | Cmax [3, 11]: 4990 ng/mL | Tmax [3, 11]: 0.32 h | dose-normalized AUC relative to ADX-102 ([3]; rats, oral, I-1 50 mg/kg vs ADX-102 10 mg/kg): approximately double | accumulation of the drug ([4]; across all cohorts): Little to no accumulation | relation of Cmax and AUC to dose ([4]; as dose increased, Phase 1 cohorts): linear correlation | Cmax ([4]; oral, 600 mg, top dose 600 mg BID, read-out: Cmax expressed as molar concentration): ~8.5 µM | half-life ([4]; oral, multiple day exposures, across cohorts and days, read-out: half-life (t1/2), range of mean values): 3.49 to 6.83 h | AUC(0-t) ([4]; po, 50 mg, oral 50 mg BID, Day 1): ~148 ng·h/mL | Cmax ([4]; po, 50 mg, oral 50 mg BID, Day 1, read-out: Mean Cmax): ~70.2 ng/mL | half-life ([4]; po, 50 mg, oral 50 mg BID, Day 1, read-out: Mean t1/2 (converted)): ~3.49 h | AUC(0-t) ([4]; po, 50 mg, oral 50 mg BID, Day 10): 252 ng·h/mL | Cmax ([4]; po, 50 mg, oral 50 mg BID, Day 10, read-out: Mean Cmax): 85.9 ng/mL | half-life ([4]; po, 50 mg, oral 50 mg BID, Day 10, read-out: Mean t1/2 (converted)): 5.25 h | AUC(0-t) ([4]; po, 150 mg, oral 150 mg BID, Day 1): ~809 ng·h/mL | Cmax ([4]; po, 150 mg, oral 150 mg BID, Day 1, read-out: Mean Cmax): ~343 ng/mL | half-life ([4]; po, 150 mg, oral 150 mg BID, Day 1, read-out: Mean t1/2 (converted)): ~4.86 h | AUC(0-t) ([4]; po, 150 mg, oral 150 mg BID, Day 10): 1170 ng·h/mL | Cmax ([4]; po, 150 mg, oral 150 mg BID, Day 10, read-out: Mean Cmax): 320 ng/mL | half-life ([4]; po, 150 mg, oral 150 mg BID, Day 10, read-out: Mean t1/2 (converted)): 6.34 h | AUC(0-t) ([4]; po, 350 mg, oral 350 mg BID, Day 1): ~2950 ng·h/mL | Cmax ([4]; po, 350 mg, oral 350 mg BID, Day 1, read-out: Mean Cmax): ~1190 ng/mL | half-life ([4]; po, 350 mg, oral 350 mg BID, Day 1, read-out: Mean t1/2 (converted)): ~5.67 h | AUC(0-t) ([4]; po, 350 mg, oral 350 mg BID, Day 10): 4340 ng·h/mL | Cmax ([4]; po, 350 mg, oral 350 mg BID, Day 10, read-out: Mean Cmax): 1230 ng/mL | half-life ([4]; po, 350 mg, oral 350 mg BID, Day 10, read-out: Mean t1/2 (converted)): 6.83 h | AUC(0-t) ([4]; po, 600 mg, oral 600 mg BID, Day 1): ~6450 ng·h/mL | Cmax ([4]; po, 600 mg, oral 600 mg BID, Day 1, read-out: Mean Cmax): ~2230 ng/mL | half-life ([4]; po, 600 mg, oral 600 mg BID, Day 1, read-out: Mean t1/2 (converted)): ~4.15 h | AUC(0-t) ([4]; po, 600 mg, oral 600 mg BID, Day 10): 7220 ng·h/mL | Cmax ([4]; po, 600 mg, oral 600 mg BID, Day 10, read-out: Mean Cmax): 1700 ng/mL | half-life ([4]; po, 600 mg, oral 600 mg BID, Day 10, read-out: Mean t1/2 (converted)): 4.66 h | Mean AUC0-12 ([4]; oral 50 mg BID, Day 1): 148 ng·h/mL | Mean AUC0-12 ([4]; oral 50 mg BID, Day 10): ~252 ng·h/mL | Mean AUC0-12 ([4]; oral 150 mg BID, Day 1): 809 ng·h/mL | Mean AUC0-12 ([4]; oral 150 mg BID, Day 10): ~1170 ng·h/mL | Mean AUC0-12 ([4]; oral 350 mg BID, Day 1): 2950 ng·h/mL | Mean AUC0-12 ([4]; oral 350 mg BID, Day 10): ~4340 ng·h/mL | Mean AUC0-12 ([4]; oral 600 mg BID, Day 1): 6450 ng·h/mL | Mean AUC0-12 ([4]; oral 600 mg BID, Day 10): ~7220 ng·h/mL | free MDA levels in plasma (malondialdehyde (MDA)): decrease in free MDA levels
